According to patent US20140094424A1, “MICROBICIDAL COMPOSITIONS AND METHODS OF PRODUCTION USE THEREOF” (priority 2011, published 2014):

Experiments:
Test in all cases: MBC (minimum bactericidal concentration) test in Wash NEXT reagent
Assay type in all cases: cell-based
[1] = system: Pseudomonas aeruginosa (L)
Protocol: (§1) The stock organisms were thawed and subbed prior to beginning the MBC test. Molds were subbed to SDA plates one week before, and the bacteria were subbed to TAT agar plates 24 hours prior to the start of the test. All plates were incubated at 32 degrees C.
(§2) Each bacterial organism was inoculated into 40 ml sterile saline in a centrifuge tube to create a density of MacFarland #1. Two serial dilutions of 1:100 were then made, resulting in 10^−2 and 10^−4 concentrations. Each dilution was vortexed before it was sampled, and sterile Eppendorf pipette tips were used to make each transfer. The 10^−4 dilution was spiral plated to yield the initial inoculum concentration.
(§3) MBC trays were set up with the prepared test reagent. Using a Matrix pipettor, 100 μl aliquots of reagent were distributed into the wells, diluting the amount of preservative from 100% to 10% increments, using unpreserved reagent as the diluent. In one row, 100% non-preserved reagent acted as a positive control and served as a benchmark for a full mat of growth. In well #12H, 100 μl unpreserved reagent was pipetted, and this well was not inoculated with organisms, as it served as the negative control. Once all of the trays were prepared, the prepared bacteria/mold suspensions were poured into the MBC inoculating trays. These were placed onto the reagent trays, and 0.01 ml inoculum was introduced into the 100 μl of reagent in each well.
(§4) This was done by dipping a sterile cotton swab into each well, and absorbing all of the liquid in the well. The swab was rolled onto a TAT agar plate ensuring that the entire swab touches the agar. Plates ware incubated at 32 degrees C. for 48 hours to 7 days, depending on the organism. Observations for growth were performed by a scoring matrix using + for a full mat, +/− for some growth, a numerical value for an actual colony count, and—for no growth.
(§5) Below are tables that contain the data obtained in Example 1. The MBC test is scored by (+) indicating a full grown mat of organisms, equivalent to the organisms in the unpreserved reagent. (+/−) indicates there is some kill evident disturbing that mat or bringing the quantities down to an almost countable level. An actual number is the actual number of colonies growing at that concentration of preservative. (−) indicates no growth found. The MBC trays were stored at room temperature for the entire test.
(§6) The materials and methods and analysis of the MBC test were the same as in Example 1.

[2] = system: Pseudomonas fluorescens (D)
Protocol: as §1, §2, §3, §4, §5, §6

[3] = system: Pseudomonas putida (K)
Protocol: as §1, §2, §3, §4, §5, §6

## gentamicin
[1]; 10% preservative, 8 hour
  MBC test growth score: +
[1]; 10% preservative, 24 hour
  MBC test growth score: +
[1]; 10% preservative, 48 hour
  MBC test growth score: +/−
[1]; 10% preservative, 72 hour
  MBC test growth score: 8
[1]; 20% preservative, 8 hour
  MBC test growth score: +
[1]; 20% preservative, 24 hour
  MBC test growth score: +
[1]; 20% preservative, 48 hour
  MBC test growth score: +/−
[1]; 20% preservative, 72 hour
  MBC test growth score: 4
[1]; 30% preservative, 8 hour
  MBC test growth score: +
[1]; 30% preservative, 24 hour
  MBC test growth score: +/−
[1]; 30% preservative, 48 hour
  MBC test growth score: +/−
[1]; 30% preservative, 72 hour
  MBC test growth score: 2
[1]; 40% preservative, 8 hour
  MBC test growth score: +
[1]; 40% preservative, 24 hour
  MBC test growth score: +/−
[1]; 40% preservative, 48 hour
  MBC test growth score: +/−
[1]; 40% preservative, 72 hour
  MBC test growth score: 1
[1]; 50% preservative, 8 hour
  MBC test growth score: +
[1]; 50% preservative, 24 hour
  MBC test growth score: +/−
[1]; 50% preservative, 48 hour
  MBC test growth score: +/−
[1]; 50% preservative, 72 hour
  MBC test growth score: −
[1]; 60% preservative, 8 hour
  MBC test growth score: +/−
[1]; 60% preservative, 24 hour
  MBC test growth score: +/−
[1]; 60% preservative, 48 hour
  MBC test growth score: +/−
[1]; 60% preservative, 72 hour
  MBC test growth score: −
[1]; 70% preservative, 8 hour
  MBC test growth score: +/−
[1]; 70% preservative, 24 hour
  MBC test growth score: +/−
[1]; 70% preservative, 48 hour
  MBC test growth score: +/−
[1]; 70% preservative, 72 hour
  MBC test growth score: −
[1]; 80% preservative, 8 hour
  MBC test growth score: +/−
[1]; 80% preservative, 24 hour
  MBC test growth score: +/−
[1]; 80% preservative, 48 hour
  MBC test growth score: +/−
[1]; 80% preservative, 72 hour
  MBC test growth score: −
[1]; 90% preservative, 8 hour
  MBC test growth score: +/−
[1]; 90% preservative, 24 hour
  MBC test growth score: +/−
[1]; 90% preservative, 48 hour
  MBC test growth score: −
[1]; 90% preservative, 72 hour
  MBC test growth score: −
[1]; 100% preservative, 8 hour
  MBC test growth score: +/−
[1]; 100% preservative, 24 hour
  MBC test growth score: +/−
[1]; 100% preservative, 48 hour
  MBC test growth score: −
[1]; 100% preservative, 72 hour
  MBC test growth score: −
[2]; 10% preservative, 8 hour
  MBC test growth score: +
[2]; 10% preservative, 24 hour
  MBC test growth score: +
[2]; 10% preservative, 48 hour
  MBC test growth score: +/−
[2]; 10% preservative, 72 hour
  MBC test growth score: 15
[2]; 20% preservative, 8 hour
  MBC test growth score: +
[2]; 20% preservative, 24 hour
  MBC test growth score: +
[2]; 20% preservative, 48 hour
  MBC test growth score: +/−
[2]; 20% preservative, 72 hour
  MBC test growth score: 12
[2]; 30% preservative, 8 hour
  MBC test growth score: +
[2]; 30% preservative, 24 hour
  MBC test growth score: +/−
[2]; 30% preservative, 48 hour
  MBC test growth score: +/−
[2]; 30% preservative, 72 hour
  MBC test growth score: −
[2]; 40% preservative, 8 hour
  MBC test growth score: +
[2]; 40% preservative, 24 hour
  MBC test growth score: +/−
[2]; 40% preservative, 48 hour
  MBC test growth score: +/−
[2]; 40% preservative, 72 hour
  MBC test growth score: −
[2]; 50% preservative, 8 hour
  MBC test growth score: +/−
[2]; 50% preservative, 24 hour
  MBC test growth score: 14
[2]; 50% preservative, 48 hour
  MBC test growth score: +/−
[2]; 50% preservative, 72 hour
  MBC test growth score: −
[2]; 60% preservative, 8 hour
  MBC test growth score: +/−
[2]; 60% preservative, 24 hour
  MBC test growth score: 13
[2]; 60% preservative, 48 hour
  MBC test growth score: +/−
[2]; 60% preservative, 72 hour
  MBC test growth score: −
[2]; 70% preservative, 8 hour
  MBC test growth score: +/−
[2]; 70% preservative, 24 hour
  MBC test growth score: 5
[2]; 70% preservative, 48 hour
  MBC test growth score: −
[2]; 70% preservative, 72 hour
  MBC test growth score: −
[2]; 80% preservative, 8 hour
  MBC test growth score: +/−
[2]; 80% preservative, 24 hour
  MBC test growth score: 5
[2]; 80% preservative, 48 hour
  MBC test growth score: −
[2]; 80% preservative, 72 hour
  MBC test growth score: −
[2]; 90% preservative, 8 hour
  MBC test growth score: +/−
[2]; 90% preservative, 24 hour
  MBC test growth score: 1
[2]; 90% preservative, 48 hour
  MBC test growth score: −
[2]; 90% preservative, 72 hour
  MBC test growth score: −
[2]; 100% preservative, 8 hour
  MBC test growth score: +/−
[2]; 100% preservative, 24 hour
  MBC test growth score: −
[2]; 100% preservative, 48 hour
  MBC test growth score: −
[2]; 100% preservative, 72 hour
  MBC test growth score: −
[3]; 10% preservative, 8 hour
  MBC test growth score: −
[3]; 10% preservative, 24 hour
  MBC test growth score: −
[3]; 10% preservative, 48 hour
  MBC test growth score: −
[3]; 10% preservative, 72 hour
  MBC test growth score: −
[3]; 20% preservative, 8 hour
  MBC test growth score: −
[3]; 20% preservative, 24 hour
  MBC test growth score: −
[3]; 20% preservative, 48 hour
  MBC test growth score: −
[3]; 20% preservative, 72 hour
  MBC test growth score: −
[3]; 30% preservative, 8 hour
  MBC test growth score: −
[3]; 30% preservative, 24 hour
  MBC test growth score: −
[3]; 30% preservative, 48 hour
  MBC test growth score: −
[3]; 30% preservative, 72 hour
  MBC test growth score: −
[3]; 40% preservative, 8 hour
  MBC test growth score: −
[3]; 40% preservative, 24 hour
  MBC test growth score: −
[3]; 40% preservative, 48 hour
  MBC test growth score: −
[3]; 40% preservative, 72 hour
  MBC test growth score: −
[3]; 50% preservative, 8 hour
  MBC test growth score: −
[3]; 50% preservative, 24 hour
  MBC test growth score: −
[3]; 50% preservative, 48 hour
  MBC test growth score: −
[3]; 50% preservative, 72 hour
  MBC test growth score: −
[3]; 60% preservative, 8 hour
  MBC test growth score: −
[3]; 60% preservative, 24 hour
  MBC test growth score: −
[3]; 60% preservative, 48 hour
  MBC test growth score: −
[3]; 60% preservative, 72 hour
  MBC test growth score: −
[3]; 70% preservative, 8 hour
  MBC test growth score: −
[3]; 70% preservative, 24 hour
  MBC test growth score: −
[3]; 70% preservative, 48 hour
  MBC test growth score: −
[3]; 70% preservative, 72 hour
  MBC test growth score: −
[3]; 80% preservative, 8 hour
  MBC test growth score: −
[3]; 80% preservative, 24 hour
  MBC test growth score: −
[3]; 80% preservative, 48 hour
  MBC test growth score: −
[3]; 80% preservative, 72 hour
  MBC test growth score: −
[3]; 90% preservative, 8 hour
  MBC test growth score: −
[3]; 90% preservative, 24 hour
  MBC test growth score: −
[3]; 90% preservative, 48 hour
  MBC test growth score: −
[3]; 90% preservative, 72 hour
  MBC test growth score: −
[3]; 100% preservative, 8 hour
  MBC test growth score: −
[3]; 100% preservative, 24 hour
  MBC test growth score: −
[3]; 100% preservative, 48 hour
  MBC test growth score: −
[3]; 100% preservative, 72 hour
  MBC test growth score: −
